{"source": "paper PMC11763264", "about": "“Antibacterial and Antifungal Activities of Linear and Cyclic Peptides Containing Arginine, Tryptophan, and Diphenylalanine” (Antibiotics, 2025)", "key": {"MES-SA cells": {"tested_on": "MES-SA cells", "conditions": "cited from earlier work", "excerpt": "(§1) We have previously reported in vitro cytotoxicity of the synthesized peptides in a range of mammalian cell lines, including human ovarian adenocarcinoma cells (SK-OV-3), human peripheral blood lymphoblast cells (CCRF-CEM), healthy human embryonic kidney cells (HEK-293), human mammary adenocarcinoma cells (MDA-MB-468), normal pig kidney epithelial cells (LLC-PK1), and human uterine sarcoma fibroblast cells (MES-SA)."}, "MDA-MB-468 cells": {"tested_on": "MDA-MB-468 cells", "conditions": "cited from earlier work", "excerpt": "as §1"}, "[1]": {"tested_on": "S. pneumoniae (ATCC 51938)", "test": "microbe, parasite or virus in culture", "assay_type": "cell-based, Streptococcus pneumoniae", "conditions": "ATCC 51938, 24 h", "procedure": "(§2) The antibacterial activity of all ten synthesized linear and cyclic peptides was evaluated against MRSA (ATCC BAA-1556), S. aureus (ATCC 29213), E. faecium (ATCC 700221), S. pneumoniae (ATCC 51938), E. faecalis (ATCC 29212), B. subtilis (ATCC-6633), K. pneumoniae (ATCC BAA-1705), P. aeruginosa (ATCC 27883), and E. coli (ATCC 25922). Meropenem and daptomycin were used as positive controls for this study. Certain peptides are marked as “NT” (not tested) against specific bacterial strains based on initial screening data. […] The MIC was determined by micro-broth dilution protocol, where the minimal concentrations were determined to be in wells with no visible bacterial growth.\n(§3) All bacterial experiments were carried out in a laminar flow hood (Labconco, Kansas City, MO, USA). The bacterial strains were cultured following the guidelines set by the Clinical Laboratory Standards Institute (CLSI). Antibacterial assays were performed using a standard microtiter dilution method as described in previous studies. The minimum inhibitory concentration (MIC) refers to the lowest peptide concentration that inhibits bacterial growth in wells with no visible bacterial growth. MIC was determined by micro-broth dilution. Bacteria were cultured overnight in 6 mL of Luria Broth (LB). A stock solution of the peptide was prepared in water and DMSO, and a test compound solution with a concentration of 256 µg/mL was made in LB. Meropenem, with a solubility of 8 mg/mL, was prepared as a stock solution at 4 mg/500 µL. An aliquot of the overnight bacteria culture was diluted in normal saline (NS, 1 mL) until achieving a 0.5 McFarland turbidity (1.5 × 10^8 bacterial cell CFU/mL). A 0.5 McFarland compared solution (60 µL) was added to Mueller Hinton Broth (MH) 8940 µL to generate a 1/150 dilution. A 200 µL test compound solution was added to the first well of a 96-well plate, and the remaining wells (2–12) were filled with 100 µL of MH media using a multi-channel pipette from a sterile reservoir. A concentration of […] of the tested peptides was prepared from a stock solution of the samples for testing in Muller−Hinton broth MH media. Peptides stock solution was dissolved in 5% DMSO in water, and the final concentration of DMSO in the first well of assay plate was 2.5% DMSO/H2O and diluted across the assay plate.\n(§4) A 100 µL sample from well 1 was pipetted into well 2, and the solution was mixed thoroughly by pipetting up and down. Next, 100 µL was transferred from well 2 to well 3, followed by thorough mixing. This 2-fold serial dilution process continued through well 11, with no additions made to well 12. The final 100 µL from well 11 was discarded. After completing the serial dilution, each well (1–12) contained 100 µL of solution. The bacterial culture in MH media was vortexed and transferred to a sterile reservoir, from which 100 µL was added to each well using a 12-channel pipette. (Note: The dilutions were further diluted upon adding the bacterial solution; for example, the concentration in well 1 started at […] after the addition of the bacterial culture.) The plates were incubated overnight at 37 °C for 24 h. All experiments were performed in triplicate and repeated twice, with controls consisting of bacteria in MH media and positive controls of daptomycin or meropenem."}, "A. fumigatus (Af-293)": {"tested_on": "A. fumigatus (Af-293)", "test": "microbe, parasite or virus in culture", "assay_type": "cell-based, Aspergillus fumigatus", "conditions": "RPMI 1640 with 2% D-glucose, HEPES, 10^6 cells/mL, 24 and 48 h at 35 °C, no visible growth; triplicates, repeated twice", "procedure": "The antifungal activity of all ten synthesized linear and cyclic peptides was evaluated against C. albicans (ATCC 60193), C. parapsilosis (ATCC 22019), and A. fumigatus (AF-293). Fluconazole and amphotericin B were used as positive controls for this study. The MIC was determined at concentrations in wells with no visible fungal growth.\nA. fumigatus (Af-293) was cultured on Sabouraud dextrose agar (SDA) (Lot #3431660, Oxoid) for 48–72 h at 35 °C to obtain fresh and mature colonies which reached the proper sporulation then used to prepare the inoculum. The colonies were covered with Phosphate-Buffered Saline (PBS) containing 0.025% Tween-20, scraped from the plate, and carefully collected into a sterile tube. The suspension was centrifuged at 3000 RPM for 5 min after the separation between conidia and hyphae. The supernatant was discarded, and the pellet was resuspended in 5 mL of PBS.\nPeptide concentrations of 50, 25, 12.5, 6.25, and 3.1 μg/mL were tested in triplicate. Each well of a 96-well plate was inoculated with the prepared inoculum suspension, which was diluted with RPMI 1640 medium containing L-glutamine, supplemented with 2% D-glucose, and the pH adjusted using HEPES buffer. The plates were incubated for 50 min at 35 °C to achieve a final cell concentration of 10^6 cells/mL. The control wells contained the same inoculum without any compound. The plates were then incubated for 24 and 48 h at 35 °C. Fungal growth was visualized, and the minimum inhibitory concentration (MIC) was determined as the lowest peptide concentration, where no growth was observed."}, "[2]": {"tested_on": "K. pneumoniae (ATCC BAA-1705)", "test": "microbe, parasite or virus in culture", "assay_type": "cell-based, Klebsiella pneumoniae", "conditions": "ATCC BAA-1705, 24 h", "procedure": "as §2, §3, §4"}}, "note": "Non-standard residues stand in square brackets, D forms with d. Residues, ends and D or L forms follow the SMILES beside them. Dip = N[C@H](C(=O)O)C(c1ccccc1)c1ccccc1", "data": [{"compound": "N=C(N)NCCC[C@@H]1NC(=O)[C@H](C(c2ccccc2)c2ccccc2)NC(=O)[C@H](CCCNC(=N)N)NC(=O)[C@H](C(c2ccccc2)c2ccccc2)NC(=O)[C@H](CCCNC(=N)N)NC(=O)[C@H](C(c2ccccc2)c2ccccc2)NC(=O)[C@H](CCCNC(=N)N)NC(=O)[C@H](C(c2ccccc2)c2ccccc2)NC(=O)[C@H](CCCNC(=N)N)NC(=O)[C@H](C(c2ccccc2)c2ccccc2)NC1=O", "note": "[[DipR]5] (cyclo([Dip]R[Dip]R[Dip]R[Dip]R[Dip]R))", "values": [{"measurement": "cytotoxicity against MES-SA cells", "setting": "MES-SA cells", "value": "moderate effects"}, {"measurement": "cytotoxicity against MDA-MB-468 cells", "setting": "MDA-MB-468 cells", "value": "reduced cytotoxicity"}, {"measurement": "MIC", "setting": "[1]", "value": 0.39, "unit": "µM"}, {"measurement": "MIC", "setting": "A. fumigatus (Af-293)", "value": 1.6, "unit": "µM"}, {"measurement": "MIC", "setting": "[2]", "value": 25, "unit": "µM"}]}]}
